According to the supplement of paper PMC10307832:

Legend:
Test in all cases: relative viability (nuclei count vs DMSO), 5 days (fraction); higher = more cells survive
[1] = compound: CCOC(=O)CCNc1cc(N2CCc3ccccc3CC2)nc(-c2ccccn2)n1 [GSK-J4] + Nc1nc2[nH]cc(CCc3ccc(C(=O)N[C@@H](CCC(=O)O)C(=O)O)cc3)c2c(=O)[nH]1 [Pemetrexed] (partner 0.2 µM)
In short: (§1)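 Lung cancer cell lines, seeded in 1536-well plates, were treated the following day by pin tool with a single drug or with five library-drug doses (not always all listed) in √10 steps on top of a fixed anchor-drug dose. Cells were fixed and nuclei stained in one step after 5 days, and nuclei were counted. Relative viability is the nuclei count for treated wells divided by that for vehicle wells, reported as medians of duplicate plates.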

[2] = compound: CN1CCC(CC1)OC2=CC(=C(C=C2)NC3=NC=C4C(=N3)N(C(=O)N4C)C5CCCC5)OC [AZ3146] + N=C(N)NC(=N)NCCc1ccccc1 [Phenformin] (partner 250 µM)
In short: as §1

[3] = compound: CCOC(=O)CCNc1cc(N2CCc3ccccc3CC2)nc(-c2ccccn2)n1 [GSK-J4] + Cc1cc(Nc2cc(N3CCN(C)CC3)nc(Sc3ccc(NC(=O)C4CC4)cc3)n2)n[nH]1 [Tozasertib] (partner 0.1 µM)
In short: as §1

[4] = compound: CCOC(=O)CCNc1cc(N2CCc3ccccc3CC2)nc(-c2ccccn2)n1 [GSK-J4] + NC(=O)Nc1cc(-c2cccc(F)c2)sc1C(=O)N[C@H]1CCCNC1 [AZD7762] (partner 0.2 µM)
In short: as §1

Cell Line | relative viability ([1]; first compound 0.5 µM) | relative viability ([1]; first compound 1.581 µM) | relative viability ([1]; first compound 5 µM) | relative viability ([1]; first compound 15.81 µM) | relative viability ([1]; first compound 50 µM) | relative viability ([2]; first compound 0.08 µM) | relative viability ([2]; first compound 0.253 µM) | relative viability ([2]; first compound 0.8 µM) | relative viability ([2]; first compound 2.53 µM) | relative viability ([2]; first compound 8 µM) | relative viability ([3]; first compound 0.5 µM) | relative viability ([3]; first compound 1.581 µM) | relative viability ([3]; first compound 5 µM) | relative viability ([3]; first compound 15.81 µM) | relative viability ([3]; first compound 50 µM) | relative viability ([4]; first compound 0.5 µM) | relative viability ([4]; first compound 5 µM) | relative viability ([4]; first compound 50 µM) | relative viability ([4]; first compound 15.81 µM) | relative viability ([4]; first compound 1.581 µM)
NCI-H1563 | 0.738 | 1.26 | 0.717 | 0.698 | 0.76 | 0.619 | 0.645 | 0.596 | 0.639 | 0.644 | – | – | – | – | – | – | – | – | – | –
NCI-H1623 | – | – | – | – | – | 0.586 | 0.534 | 0.591 | 0.607 | 0.565 | 0.437 | 0.467 | 0.455 | 0.435 | 0.451 | – | – | – | – | –
NCI-H1648 | 0.618 | – | 1.02 | – | 0.873 | – | – | – | – | – | 0.44 | – | 0.978 | 0.324 | 0.307 | 0.676 | 0.925 | 0.843 | – | –
NCI-H1650 | 0.439 | 0.303 | 0.392 | 0.36 | 0.331 | 0.415 | 0.355 | 0.449 | 0.386 | 0.26 | 0.369 | 0.393 | 0.333 | 0.311 | 0.301 | – | – | – | – | –
NCI-H1703 | – | – | – | – | – | – | – | – | – | – | – | – | – | – | – | 0.117 | 0.113 | 0.119 | 0.119 | –
NCI-H1792 | 0.799 | 0.595 | 0.501 | 0.632 | 0.777 | 0.191 | – | 0.318 | 0.267 | 0.121 | – | – | – | – | – | 0.771 | 0.325 | 0.457 | 0.674 | 0.534
NCI-H2009 | 0.964 | 0.846 | 0.769 | 0.997 | 0.576 | 0.478 | 0.494 | 0.402 | 0.386 | 0.311 | 0.69 | 0.663 | 0.681 | 0.717 | 0.306 | – | – | – | – | –
NCI-H2023 | 0.177 | 0.245 | 0.238 | 0.218 | 0.173 | 0.403 | 0.428 | 0.349 | 0.38 | 0.217 | 0.384 | – | 0.335 | 0.371 | 0.222 | – | – | – | – | –
NCI-H2228 | 0.335 | 0.328 | 0.342 | 0.36 | 0.364 | 0.345 | 0.389 | 0.351 | 0.321 | 0.277 | 0.221 | 0.237 | 0.246 | 0.247 | 0.212 | – | – | – | – | –
SK-LU-1 | 0.931 | 0.877 | 0.85 | 0.876 | 0.717 | 0.486 | 0.512 | 0.424 | 0.607 | 0.345 | 0.306 | 0.28 | 0.289 | 0.326 | 0.276 | – | – | – | – | –
SK-MES-1 | 0.836 | 0.878 | 0.882 | 0.808 | 0.508 | 0.661 | 0.649 | 0.61 | 0.635 | 0.518 | 0.821 | 0.854 | 0.736 | 0.856 | 0.524 | – | – | – | – | –
SW 1573 | 0.81 | 0.804 | 0.768 | 0.756 | 0.375 | 0.398 | 0.407 | 0.365 | 0.367 | 0.239 | 0.206 | 0.129 | 0.164 | 0.199 | 0.177 | – | – | – | – | –
